Measured values reported in US20060210479A1 (Dow Global Technologies Inc., priority 2004, published 2006).
Like-named read-outs stand apart in the source and are kept apart here.

Assays:
LNCaP cells = assay: Adsorption of chelate compounds to cells (HPLC and mass spectrometry); type: cell-based, human; details: for Adsorption LNCaP: 50 µM chelate compound, 0, 30 and 90 minutes at 37 °C, % adsorbed relative to time zero
Description: (§1) As a prerequisite for the understanding of the functional attributes of Tb-PCTMB and Eu-QCTME for diagnostics and therapeutic purposes, and for other uses, it is useful to synthesize a series of chelate compounds that contain structural elements of both PCTMB and QCTME and test these compounds for adsorption and permeability to different cell lines. The first approach was to test for adsorption to a normal cell line (HEK293) and to two epithelial cancer cell lines (LNCaP and Caco-2). The second approach, described in this example, involves testing only the compounds that adsorbed in the cancer cell lines and not in the normal cell lines for permeability. Adsorption and permeability of the compounds to epithelial cancer cell lines and a normal cell line was measured through the detection of the compound by HPLC and mass spectrometry.
(§2) Cell cultures. LNCaP cell line is a human prostate carcinoma. Cells were grown in RPMI 1640 Medium supplemented 10% FBS, 2 mM L-glutamine, glucose (2 g/L) augmented with gentamicin (50 μg/mL), penicillin/streptomycin (100 IU/mL/100 μg/mL) and amphotericin B (2.5 μg/mL). Caco-2 cell line is a human colorectal carcinoma. These cells were grown in Eagle's Minimum Essential Medium supplemented with 20% FBS, Earle's BSS, 2 mM L-glutamine, 1.0 mM sodium pyruvate, 0.1 mM nonessential amino acids augmented with gentamicin (50 μg/mL), penicillin/streptomycin (100 IU/mL/100 μg/mL), and amphotericin B (2.5 μg/mL). The human kidney transformed cells HEK293 were grown in Eagle's Minimum Essential Medium (EMEM) supplemented with 10% (v/v) heat-inactivated fetal bovine serum, sodium pyruvate, nonessential amino acids and antibiotics in a humidified 5% CO2 atmosphere at 37° C. Medium and supplements were purchased from Gibco BRL (Grand Island, N.Y.) and all cell lines were obtained from ATCC.
(§3) Detection of chelate compounds for the determination of adsorption. Cells were grown to confluence in T-150 flasks (about 2×10^7 cells). Before treating with chelate compounds, cells were rinsed twice with warm 10 mM HEPES (Gibco BRL, Grand Island N.Y.), removed from the flask, and transferred to a 50-mL conical tube and centrifuged (400×g) for 5 minutes. The resulting cells were treated with individual chelate compounds with 50 µM of chelate compounds in 10 mM HEPES, pH 7.4, 5 mM KCl, 150 mM NaCl, 0.7 mM NaH2PO4 for 0, 30, and 90 minutes at 37 ° C. After treatment, cells were pelleted by centrifugation and the resulting solution was analyzed by a combination of HPLC and mass spectrometry.

Caco-2 cells = assay: as above; type: cell-based, human; details: for Adsorption Caco-2: 50 µM chelate compound, 0, 30 and 90 minutes at 37 °C, % adsorbed relative to time zero
Description: as §1, §2, §3

HEK293 cells = assay: as above; type: cell-based, human; details: for Adsorption HEK293: 50 µM chelate compound, 0, 30 and 90 minutes at 37 °C, % adsorbed relative to time zero
Description: as §1, §2, §3

[1] = Solubility of chelate compounds

SMILES | adsorption in carcinoma cell line LNCaP (LNCaP cells) | Adsorption LNCaP (LNCaP cells) | adsorption in carcinoma cell line Caco-2 (Caco-2 cells) | Adsorption Caco-2 (Caco-2 cells) | adsorption in normal cells (HEK293) (HEK293 cells) | Adsorption HEK293 (HEK293 cells) | solubility ([1]; <5% methanol, ethanol, or DMSO) [mM] | solubility [1] [mM] | adsorption in carcinoma cell line Caco-2 (Caco-2 cells; Caco-2)
COP(=O)(O)Cc1cccc(CP(=O)(O)OC)n1 [Compound 4, [6-(Hydroxy-methoxy-phosphorylmethyl)-pyridin-2-ylmethyl]-phosphonic acid monomethyl ester] | adsorbed | ++ (++ = 21-40%) | adsorbed | ++ (++ = 21-40%) | adsorbed | ++ (++ = 21-40%) | > 10 | – | –
CCCCOP(=O)(O)Cc1cccc(CP(=O)(O)OCCCC)n1 [Compound 6, [6-(Hydroxy-butoxy-phosphorylmethyl)-pyridin-2-ylmethyl]-phosphonic acid monobutyl ester] | adsorbed | +++ (+++ = 41-60%) | adsorbed | +++ (+++ = 41-60%) | adsorbed | +++ (+++ = 41-60%) | > 10 | – | –
COP(=O)(O)Cc1c(C)c(CP(=O)(O)OC)c(C)c(CP(=O)(O)OC)c1C [Compound 10, [3,5-Bis-(Methoxy-hydroxy-phosphorylmethyl)-2,4,6-trimethyl-benzyl]-phosphonic acid monomethyl ester] | did not adsorb | 0 (0 = 0-10%) | did not adsorb | 0 (0 = 0-10%) | did not adsorb | 0 (0 = 0-10%) | > 10 | – | –
CCCCN(CCCC)Cc1cc(CN(CCCC)CCCC)cc(CN(CCCC)CCCC)c1 [Compound 15, (3,5-Bis-dibutylaminomethyl-benzyl)-dibutyl-amine] | – | – | – | – | – | – | – | < 10 | –
CCOP(=O)(O)Cc1c(C)c(CP(=O)(O)OCC)c(C)c(CP(=O)(O)OCC)c1C [Compound 11, [3,5-Bis-(Ethoxy-hydroxy-phosphorylmethyl)-2,4,6-trimethyl-benzyl]-phosphonic acid monoethyl ester] | – | 0 (0 = 0-10%) | – | 0 (0 = 0-10%) | – | 0 (0 = 0-10%) | > 10 | – | –
CCOP(=O)(O)CNCCCN(CCCNCP(=O)(O)OCC)CP(=O)(O)OCC [Compound 20, [(Bis-{3-[(ethoxy-hydroxy-phosphorylmethyl)-amino]-propyl}-amino)-methyl]-phosphonic acid monoethyl ester] | adsorbed | ++ (++ = 21-40%) | – | ++ (++ = 21-40%) | adsorbed | ++ (++ = 21-40%) | > 10 | – | adsorbed
CCN(CC)Cc1c(C)c(CN(CC)CC)c(C)c(CN(CC)CC)c1C [Compound 17, (3,5-Bis-diethylaminomethyl-2,4,6-trimethyl-benzyl)-diethyl-amine] | – | – | – | – | – | – | – | < 10 | –
COP(=O)(O)Cc1cc(CP(=O)(O)OC)cc(CP(=O)(O)OC)c1 [Compound 7, [3,5-Bis-(Methoxy-hydroxy-phosphorylmethyl)-benzyl]-phosphonic acid monomethyl ester] | did not adsorb | 0 (0 = 0-10%) | did not adsorb | 0 (0 = 0-10%) | did not adsorb | 0 (0 = 0-10%) | > 10 | – | –
CN(C)Cc1cc(CN(C)C)cc(CN(C)C)c1 [Compound 13, (3,5-Bis-dimethylaminomethyl-benzyl)-dimethylamine] | – | 0 (0 = 0-10%) | – | 0 (0 = 0-10%) | – | 0 (0 = 0-10%) | > 10 | – | –
CCN(CC)CCCN(CC)CCCN(CC)CC [Compound 23, N-(3-Diethylamino-propyl)-N,N′,N′-triethyl-propane-1,3-diamine] | adsorbed | + (+ = 11-20%) | adsorbed | ++ (++ = 21-40%) | adsorbed | + (+ = 11-20%) | > 10 | – | –
COP(=O)(O)CNCCCN(CCCNCP(=O)(O)OC)CP(=O)(O)OC [Compound 19, [(Bis-{3-[(hydroxy-methoxy-phosphorylmethyl)-amino]-propyl}-amino)-methyl]-phosphonic acid monomethyl ester] | adsorbed | ++ (++ = 21-40%) | – | ++ (++ = 21-40%) | adsorbed | ++ (++ = 21-40%) | > 10 | – | adsorbed
CCOP(=O)(O)Cc1cccc(CP(=O)(O)OCC)n1 [Compound 5, [6-(Hydroxy-ethoxy-phosphorylmethyl)-pyridin-2-ylmethyl]-phosphonic acid monoethyl ester] | – | + (+ = 11-20%) | – | 0 (0 = 0-10%) | – | + (+ = 11-20%) | > 10 | – | –
COP(=O)(O)Cc1ccc2cc(C)ccc2n1 [Compound 1] | did not adsorb | 0 (0 = 0-10%) | did not adsorb | 0 (0 = 0-10%) | did not adsorb | 0 (0 = 0-10%) | > 10 | – | –
CCCCN(CCCC)Cc1c(C)c(CN(CCCC)CCCC)c(C)c(CN(CCCC)CCCC)c1C [Compound 18, (3,5-Bis-dibutylaminomethyl-2,4,6-trimethyl-benzyl)-dibutyl-amine] | – | – | – | – | – | – | – | < 10 | –
Cc1c(CN(C)C)c(C)c(CN(C)C)c(C)c1CN(C)C [Compound 16, (3,5-Bis-dimethylaminomethyl-2,4,6-trimethyl-benzyl)-dimethyl-amine] | – | 0 (0 = 0-10%) | – | 0 (0 = 0-10%) | – | 0 (0 = 0-10%) | > 10 | – | –
